Test results: ChEMBL document CHEMBL5608188, “Discovery of N'-benzyl-3-chloro-N-((1S,3R,4R)-3-((dimethylamino)methyl)-4-hydroxy-4-(3-methoxyphenyl)cyclohexyl)benzenesulfonamide as a novel selective KOR ligand” (Eur J Med Chem, 2024)
Calls of active or inactive are those of the source. The rule behind the calls is not given here.

Legend:
[1] = target: T1, Kappa-type opioid receptor (Homo sapiens, UniProt P41145); assay: Displacement of [3H] U69593 from human kappa-opioid receptor extracted from CHO cell membrane at 0.1 uM by liquid scintillation counting analysis relative to control; assay type: cell membranes
[2] = target: Delta-type opioid receptor (Rattus norvegicus) (UniProt P33533); assay: Displacement of [3H] DPDPE from rat delta-opioid receptor extracted from CHO cell membrane at 0.1 uM by liquid scintillation counting analysis relative to control; assay type: cell membranes
[3] = target: Mu-type opioid receptor (Rattus norvegicus) (UniProt P33535); assay: Displacement of [3H] DAMGO from rat mu-opioid receptor extracted from CHO cell membrane at 0.1 uM by liquid scintillation counting analysis relative to control; assay type: cell membranes
[4] = target: Mu-type opioid receptor (Rattus norvegicus) (UniProt P33535); assay: (§1) Displacement of [3H] DAMGO from rat mu-opioid receptor extracted from CHO cell membrane assessed as inhibition constant by liquid scintillation counting analysis; assay type: cell membranes
[5] = target: T1, Kappa-type opioid receptor; assay: Displacement of [3H] U69593 from human kappa-opioid receptor extracted from CHO cell membrane assessed as inhibition constant by liquid scintillation counting analysis; assay type: cell membranes
[6] = target: T1, Kappa-type opioid receptor; assay: Binding affinity to human kappa-opioid receptor extracted from CHO cell membrane assessed as inhibition constant incubated for 60 mins in presence of [3H]U69593 by radioligand binding assay; assay type: cell membranes
[7] = Metabolic stability in mouse liver assessed as intrinsic clearance at 1 uM measured upto 60 mins in presence of NADPH by LC-MS/MS analysis; assay type: ADME, tissue-based; settings: read-out: CLH
[8] = Metabolic stability in mouse liver microsomes assessed as half life at 1 uM measured upto 60 mins in presence of NADPH by LC-MS/MS analysis; assay type: ADME, Microsome
[9] = Metabolic stability in mouse liver microsomes assessed as intrinsic clearance at 1 uM measured upto 60 mins in presence of NADPH by LC-MS/MS analysis; assay type: ADME, Microsome; settings: read-out: CLH
[10] = AUC (0 to infinity) in ICR mouse at 5 mg/kg, po measured after 24 hrs; assay type: ADME, organism-based; settings: in vivo
[11] = Metabolic stability in mouse liver microsomes assessed as parent compound remaining at 1 uM measured after 15 min in presence of NADPH by LC-MS/MS analysis; assay type: ADME, Microsome; settings: read-out: Stability
[12] = Metabolic stability in mouse liver microsomes assessed as parent compound remaining at 1 uM measured after 60 min in presence of NADPH by LC-MS/MS analysis; assay type: ADME, Microsome; settings: read-out: Stability
[13] = Cmax in ICR mouse at 5 mg/kg, po measured after 24 hrs; assay type: ADME, organism-based; settings: in vivo
[14] = Tmax in ICR mouse at 5 mg/kg, po measured after 24 hrs; assay type: ADME, organism-based; settings: in vivo
[15] = Drug uptake in mouse plasma; assay type: ADME, cell-free
[16] = Half-life in ICR mouse at 5 mg/kg, po measured after 24 hrs; assay type: ADME, organism-based; settings: in vivo
[17] = Cmax in ICR mouse at 2 mg/kg, iv measured after 24 hrs; assay type: ADME, organism-based; settings: in vivo
[18] = Oral bioavailability in ICR mouse at 5 mg/kg measured after 24 hrs; assay type: ADME, organism-based; settings: in vivo
[19] = Toxicity in male Kunming mouse assessed as effect on sedation at 1.3 to 10 mg/kg, IP administered for 30 mins and measured after 1 hrs by open field test; assay type: organism-based; settings: in vivo, 1.5 h, dose 1.3-10 mg/kg, time 90 min
[20] = Metabolic stability in mouse liver microsomes assessed as parent compound remaining at 1 uM measured after 30 min in presence of NADPH by LC-MS/MS analysis; assay type: ADME, Microsome; settings: read-out: Stability
[21] = AUC (0 to t) in ICR mouse at 2 mg/kg, iv measured after 24 hrs; assay type: ADME, organism-based; settings: in vivo
[22] = Half-life in ICR mouse at 2 mg/kg, iv measured after 24 hrs; assay type: ADME, organism-based; settings: in vivo
[23] = Metabolic stability in mouse liver microsomes assessed as parent compound remaining at 1 uM measured after 5 min in presence of NADPH by LC-MS/MS analysis; assay type: ADME, Microsome; settings: read-out: Stability
[24] = target: Delta-type opioid receptor (Rattus norvegicus) (UniProt P33533); assay: (§2) Displacement of [3H] DPDPE from rat delta-opioid receptor extracted from CHO cell membrane assessed as inhibition constant by liquid scintillation counting analysis; assay type: cell membranes
Mus musculus [25] = assay: Antinociceptive activity in acetic acid induced female Kunming mouse model assessed as reduction in number of torsions preadministered for 30 mins followed by acetic acid administration and measured after 15 mins by abdominal contraction test; assay type: functional; settings: 0.75 h, time 45 min
Mus musculus [26] = assay: Antinociceptive activity in acetic acid induced female Kunming mouse model assessed as reduction in number of torsions preadministered with nor-BNI for 24 hrs followed by compound administration for 30 mins and measured after 15 mins of acetic acid administration by abdominal contraction test; assay type: functional, organism-based; settings: time 45.0 min
[27] = Tmax in ICR mouse at 2 mg/kg, iv measured after 24 hrs; assay type: ADME, organism-based; settings: in vivo
[28] = AUC (0 to t) in ICR mouse at 5 mg/kg, po measured after 24 hrs; assay type: ADME, organism-based; settings: in vivo
[29] = AUC (0 to infinity) in ICR mouse at 2 mg/kg, iv measured after 24 hrs; assay type: ADME, organism-based; settings: in vivo
[30] = Clearance in ICR mouse at 2 mg/kg, iv measured after 24 hrs; assay type: ADME, organism-based; settings: in vivo
Mu-type opioid receptor = Mu-type opioid receptor (Rattus norvegicus, UniProt P33535); assay: as §1; assay type: cell membranes
[31] = target: Delta-type opioid receptor (Rattus norvegicus, UniProt P33533); assay: as §2; assay type: cell membranes
Chain of Delta-type opioid receptor (P33533 whole entry): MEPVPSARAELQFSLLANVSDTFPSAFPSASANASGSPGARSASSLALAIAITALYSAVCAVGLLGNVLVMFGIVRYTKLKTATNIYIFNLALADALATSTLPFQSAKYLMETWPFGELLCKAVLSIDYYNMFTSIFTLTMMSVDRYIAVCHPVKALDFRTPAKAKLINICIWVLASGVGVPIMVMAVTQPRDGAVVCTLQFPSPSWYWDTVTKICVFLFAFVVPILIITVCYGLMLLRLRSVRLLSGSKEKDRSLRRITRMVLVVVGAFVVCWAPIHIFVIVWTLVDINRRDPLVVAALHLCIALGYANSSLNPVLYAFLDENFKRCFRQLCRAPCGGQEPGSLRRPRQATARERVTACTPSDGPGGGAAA

Chain of Mu-type opioid receptor (Rattus norvegicus) (P33535 whole entry): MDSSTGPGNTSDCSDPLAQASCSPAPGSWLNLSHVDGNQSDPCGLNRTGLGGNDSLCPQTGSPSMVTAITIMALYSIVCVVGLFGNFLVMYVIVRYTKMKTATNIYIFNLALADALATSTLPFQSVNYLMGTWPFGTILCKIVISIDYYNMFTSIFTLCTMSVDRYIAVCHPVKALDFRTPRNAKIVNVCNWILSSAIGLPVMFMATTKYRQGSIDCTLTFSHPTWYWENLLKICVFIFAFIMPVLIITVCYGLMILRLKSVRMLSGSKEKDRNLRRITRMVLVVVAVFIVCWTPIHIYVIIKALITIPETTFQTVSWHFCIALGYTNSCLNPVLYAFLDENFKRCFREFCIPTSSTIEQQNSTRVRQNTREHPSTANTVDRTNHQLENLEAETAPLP
Chain of Delta-type opioid receptor (Rattus norvegicus) (P33533 whole entry): as the sequence (P33533 whole entry) above
T1 sequence (P41145 whole entry): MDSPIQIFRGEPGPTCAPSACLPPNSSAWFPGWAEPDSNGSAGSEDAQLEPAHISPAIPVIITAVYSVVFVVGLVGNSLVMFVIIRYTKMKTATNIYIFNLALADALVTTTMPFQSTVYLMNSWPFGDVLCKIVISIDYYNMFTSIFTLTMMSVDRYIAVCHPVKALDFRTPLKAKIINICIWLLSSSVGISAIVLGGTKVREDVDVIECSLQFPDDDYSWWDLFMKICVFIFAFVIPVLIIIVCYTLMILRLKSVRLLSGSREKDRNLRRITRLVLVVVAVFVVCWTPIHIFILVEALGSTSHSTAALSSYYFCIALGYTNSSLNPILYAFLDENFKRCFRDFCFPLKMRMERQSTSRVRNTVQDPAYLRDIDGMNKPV
Chain of Mu-type opioid receptor (P33535 whole entry): as the sequence (P33535 whole entry) above

## COc1cccc(C2(OC(=O)c3ccccc3)CCC(NS(=O)(=O)c3ccccc3)CC2CN(C)C)c1 (centres undefined)
[1]
  inhibition: 12.9%
[2]
  inhibition: 0%
[3]
  inhibition: 18.1%

## COc1cccc(C2(O)CCCCC2CN(C)C)c1 (centres undefined)
[1]
  inhibition: 0%
[2]
  inhibition: 0%
[3]
  inhibition: 6%

## COc1cccc(C2(O)CCC(N(Cc3ccccc3)S(=O)(=O)c3ccccc3)CC2CN(C)C)c1 (centres undefined)
[1]
  inhibition: 39.7%
[2]
  inhibition: 0%
[3]
  inhibition: 14.8%

## COc1cccc([C@]2(O)CC[C@@H](N(Cc3ccccc3)S(=O)(=O)c3cccc(Cl)c3)C[C@H]2CN(C)C)c1
[4]
  Activity: inactive
[5]
  Activity: inactive

## COc1cccc(C2(OC(=O)c3ccccc3)CCC(N(C)S(=O)(=O)Cc3ccccc3)CC2CN(C)C)c1 (centres undefined)
[1]
  inhibition: 28.8%
[2]
  inhibition: 0%
[3]
  inhibition: 3.3%

## COc1cccc(C2(O)CCC(NS(=O)(=O)Cc3cccc(Cl)c3)CC2CN(C)C)c1 (centres undefined)
[1]
  inhibition: 6.9%
[2]
  inhibition: 0%
[3]
  inhibition: 35.8%

## COc1cccc(C2(O)CCC(NS(=O)(=O)Cc3ccccc3)CC2CN(C)C)c1 (centres undefined)
[1]
  inhibition: 11.2%
[2]
  inhibition: 1%
[3]
  inhibition: 41.1%

## COc1cccc(C2(O)CCC(NS(=O)(=O)c3cccs3)CC2CN(C)C)c1 (centres undefined)
[1]
  inhibition: 15.2%
[2]
  inhibition: 0%
[3]
  inhibition: 1.2%

## COc1cccc(C2(O)CCC(N(Cc3ccccc3)S(=O)(=O)c3cccc(Cl)c3)CC2CN(C)C)c1 (centres undefined)
[2]
  inhibition: 0%
[3]
  inhibition: 6.7%

## COc1cccc(C2(O)CCC(N(Cc3ccccc3)S(=O)(=O)c3cccs3)CC2CN(C)C)c1 (centres undefined)
[1]
  inhibition: 14.9%
[2]
  inhibition: 0%
[3]
  inhibition: 9.5%

## CN(C)C[C@@H]1CN(CCc2cccc(C(F)(F)F)c2)CC[C@@]1(O)c1cccc(O)c1
[6]
  Ki: 25.8 nM

## COc1cccc(C2(O)CCC(NS(=O)(=O)c3ccccc3)CC2CN(C)C)c1 (centres undefined)
[1]
  inhibition: 7.2%
[2]
  inhibition: 7.51%
[3]
  inhibition: 11.8%

## O=C(O)Cc1ccccc1Nc1c(Cl)cccc1Cl [DICLOFENAC]
[7]
  CLint scaled at 1 µM: 116 mL/min/kg
[8]
  half-life at 1 µM: 47.1 min
[9]
  microsomal CLint at 1 µM: 29.4 µL/min/mg

## COc1cccc(C2(O)CCC(N(C)S(=O)(=O)c3ccccc3)CC2CN(C)C)c1 (centres undefined)
[1]
  inhibition: 15.3%
[2]
  inhibition: 12.9%
[3]
  inhibition: 38.6%

## COc1cccc(C2(OC(=O)c3ccccc3)CCC(NS(=O)(=O)c3cccc(Cl)c3)CC2CN(C)C)c1 (centres undefined)
[1]
  inhibition: 30.5%
[2]
  inhibition: 0%
[3]
  inhibition: 14.4%

## COc1cccc(C2(O)CCC(N(C)S(=O)(=O)c3cccc(Cl)c3)CC2CN(C)C)c1 (centres undefined)
[1]
  inhibition: 22.7%
[2]
  inhibition: 14.8%
[3]
  inhibition: 16.5%

## COc1cccc(C2(OC(=O)c3ccccc3)CCC(N(C)S(=O)(=O)Cc3cccc(Cl)c3)CC2CN(C)C)c1 (centres undefined)
[1]
  inhibition: 16.6%
[2]
  inhibition: 0%
[3]
  inhibition: 0%

## COc1cccc([C@@]2(O)CC[C@H](N(Cc3ccccc3)S(=O)(=O)c3cccc(Cl)c3)C[C@@H]2CN(C)C)c1.Cl
[10]
  AUC(0-inf): 1.64 ng·h/mL
[11]
  remaining at 0.25 h, 1 µM: 6.7%
[12]
  remaining at 1 h, 1 µM: 4.59%
[13]
  Cmax: 3.87 ng/mL
[14]
  Tmax: 4.98 min
[15]
  Drug uptake: Active
[7]
  CLint scaled at 1 µM: 1390 mL/min/kg
[16]
  half-life: 16.2 min
[17]
  Cmax: 221 ng/mL
[18]
  bioavailability: 0.53%
[8]
  half-life at 1 µM: 3.95 min
[5]
  Ki: 1.9 nM
[19]
  Activity: Non-Toxic
[20]
  remaining at 0.5 h, 1 µM: 5.89%
[21]
  AUC(0-t) at 24 h: 131 ng·h/mL
[22]
  half-life: 71.4 min
[23]
  remaining at 5 min, 1 µM: 29%
[24]
  Activity: inactive
Mus musculus [25]
  ED50: 1.3 mg/kg
Mus musculus [26]
  Activity: inactive
[27]
  Tmax: 4.98 min
[28]
  AUC(0-t) at 24 h: 1.34 ng·h/mL
[3]
  inhibition: 25.8%
[29]
  AUC(0-inf): 136 ng·h/mL
[30]
  clearance: 246 mL/min/kg
[9]
  microsomal CLint at 1 µM: 351 µL/min/mg

## COc1cccc(C2(O)CCC(NS(=O)(=O)c3cccc(Cl)c3)CC2CN(C)C)c1 (centres undefined)
[1]
  inhibition: 15%
[2]
  inhibition: 0%
[3]
  inhibition: 22.8%

## COc1cccc(C2(O)CCC(N(C)S(=O)(=O)c3cccs3)CC2CN(C)C)c1 (centres undefined)
[1]
  inhibition: 22%
[2]
  inhibition: 30.1%
[3]
  inhibition: 0%

## CN(C)CC1CC(N(Cc2ccccc2)S(=O)(=O)c2cccc(Cl)c2)CCC1(O)c1cccc(O)c1.Cl (centres undefined)
[15]
  Drug uptake: Active
Mu-type opioid receptor
  Ki: 18.8 nM
[5]
  Ki: 3.1 nM
[31]
  Ki: 201 nM
[2]
  inhibition: 20.7%
